Experimental data published in ChEMBL document CHEMBL4138230, “New estrogen receptor antagonists. 3,20-Dihydroxy-19-norpregna-1,3,5(10)-trienes: Synthesis, molecular modeling, and biological evaluation” (Eur J Med Chem, 2018).
Calls of active or inactive are those of the source. No cut-off for these calls is given here.

Legend:
[1] = Growth inhibition of human MCF10A cells at <25 uM after 72 hrs by MTT assay relative to control; type: cell-based, MCF-10A; details: read-out: GI
[2] = target: T1, Estrogen receptor (Homo sapiens) (UniProt P03372); assay: Antagonist activity at ERalpha in human MCF7 cells at 5 uM after 24 hrs by luciferase reporter gene assay relative to control; type: cell-based
T1 sequence (whole entry): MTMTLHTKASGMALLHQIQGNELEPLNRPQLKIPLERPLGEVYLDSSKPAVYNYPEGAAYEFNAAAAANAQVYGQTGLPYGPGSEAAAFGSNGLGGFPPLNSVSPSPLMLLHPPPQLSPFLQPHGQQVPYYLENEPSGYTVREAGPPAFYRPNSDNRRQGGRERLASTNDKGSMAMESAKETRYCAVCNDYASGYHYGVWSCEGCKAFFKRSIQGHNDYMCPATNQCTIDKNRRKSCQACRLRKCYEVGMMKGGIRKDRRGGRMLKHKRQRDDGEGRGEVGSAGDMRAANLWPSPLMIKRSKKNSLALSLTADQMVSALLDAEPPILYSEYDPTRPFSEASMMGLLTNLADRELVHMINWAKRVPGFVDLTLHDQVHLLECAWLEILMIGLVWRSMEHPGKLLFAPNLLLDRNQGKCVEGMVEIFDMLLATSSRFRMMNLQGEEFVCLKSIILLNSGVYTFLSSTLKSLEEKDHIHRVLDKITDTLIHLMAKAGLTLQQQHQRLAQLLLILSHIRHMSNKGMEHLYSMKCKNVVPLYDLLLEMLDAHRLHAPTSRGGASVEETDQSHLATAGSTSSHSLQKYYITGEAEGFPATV

MCF7 [3] = assay: cells; details: Homo sapiens, MCF7, 72 h
Description: Growth inhibition of human MCF7 cells after 72 hrs by MTT assay

MCF-10A = assay: Growth inhibition of human MCF10A cells after 72 hrs by MTT assay; type: cell-based
MCF7 [4] = assay: Growth inhibition of human MCF7 cells at <25 uM after 72 hrs by MTT assay relative to control; type: functional

Structure (SMILES) | inhibition at 72 h [1] | inhibition [2] | IC50 (MCF7 [3]) | IC50 (MCF-10A) | growth inhibition (GI) (MCF7 [4])
C[C@@H](O)[C@@]12CCCC[C@@H]1C[C@H]1[C@@H]3CCc4cc(O)ccc4[C@H]3CC[C@@]12C | < 50% | 70% | 6.8 µM | – | –
CC/C(=C(\c1ccccc1)c1ccc(OCCN(C)C)cc1)c1ccccc1 [TAMOXIFEN] | < 50% | – | 5.3 µM | – | –
C[C@@H](O)[C@H]1CC[C@H]2[C@@H]3CCc4cc(O)ccc4[C@H]3CC[C@]12C | – | Active | 0.15 µM | 5.9 µM | –
CC(O)[C@@]12C[C@@H]1C[C@H]1[C@@H]3CCc4cc(O)ccc4[C@H]3CC[C@@]12C (mixture of isomers) | – | Active | 0.21 µM | 3.1 µM | –
CC(=O)[C@H]1CC[C@H]2[C@@H]3CCc4cc(O)ccc4[C@H]3CC[C@]12C | < 50% | inactive | – | – | <50%
COc1ccc2c(c1)CC[C@@H]1[C@@H]2CC[C@@]2(C)[C@H]1C[C@H]1CCCC[C@]12C(C)O (mixture of isomers) | – | inactive | – | – | –
C[C@H](O)[C@@]12CCCC[C@@H]1C[C@H]1[C@@H]3CCc4cc(O)ccc4[C@H]3CC[C@@]12C | – | Active | 4.6 µM | 23 µM | –
CC(=O)[C@@]12CCCC[C@@H]1C[C@H]1[C@@H]3CCc4cc(O)ccc4[C@H]3CC[C@@]12C | < 50% | Active | 15.8 µM | – | –
COc1ccc2c(c1)CC[C@@H]1[C@@H]2CC[C@@]2(C)[C@H]1C[C@H]1CCCC[C@]12C(C)=O | < 50% | inactive | – | – | <50%
CC(O)C1=CC[C@H]2[C@@H]3CCc4cc(O)ccc4[C@H]3CC[C@]12C (mixture of isomers) | – | inactive | 4.6 µM | 19.1 µM | –
